Measurements published in US20250179055A1, “Substituted 2-(pyrrolidine-3-yl)acetic acid derivative, preparation method and use thereof” (INNOVSTONE THERAPEUTICS LIMITED, priority 2023, published 2025).
pIC50: −log10 of the molar value.

Tests used:
[1] = target: Lp(a) assembly in HepG2 cells overexpressing ApoA protein (Homo sapiens (Human), UniProt P08519); assay: ELISA assay on screening Lp(a) assembly inhibition; type: cell-based; settings: HepG2 cells overexpressing ApoA protein, 24 h, ELISA of supernatant
Method in brief: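 HepG2 cells overexpressing ApoA treated with diluted compounds for 24 h at 37 °C, 5% CO2; EACA (10 μL of 1.5 M) added before harvesting supernatant. Secreted Lp(a) quantified by sandwich ELISA; IC50 from four-parameter Hill fit of % inhibition versus concentration.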

serum Lp(a) = assay: Humanized mouse Lp(a) inhibition test; type: in vivo, humanized Lp(a) transgenic mouse; settings: blood 8 h after last dose, humanized Lp(a) mice
Description: The in vivo pharmacodynamics of the compounds in reducing Lp(a) was evaluated in a humanized Lp(a) transgenic mouse model. Lp(a) mice were obtained by crossing mice expressing humanized apoB-100 with mice expressing humanized apo(a) containing 16 Kringle repeats. Female mice aged 8-9 weeks were selected for the test. Housing conditions: standard light cycle (12 h light/12 h dark), temperature 20-25° C., humidity 40-70%, free access to water and normal diet. is One day before the test, mice were divided into vehicle control group and test article group (n=5/group) according to body weight and baseline plasma Lp(a) concentration. Mice were orally administered with vehicle (normal saline, 10 mL/kg) or test compound (prepared with normal saline to 3 or 0.5 mg/mL, each mouse received 10 mL/kg), once daily (9:00 am) for 3 consecutive days, and blood was collected to determine the change of serum Lp(a). Eight hours after the last dose, 10 μL of blood was collected from the tail vein and transferred to a 1.5 mL centrifuge tube containing 90 μL of normal saline, mixed well, and left to stand on ice for 30 min. The above samples were centrifuged at 4° C., 3000 rpm for 10 min, and the supernatant was collected and placed on ice. The Lp(a) concentration in the supernatant was measured by double-antibody sandwich ELISA using an anti-apo(a) capture antibody and an HRP-conjugated anti-ApoB detection antibody, with TMB for color development. The reaction was stopped with 1 N sulfuric acid, and the OD value was read at 450 nm on a Tecan microplate reader. Inhibition rate was calculated for each dosing group. Inhibition rate (%)=(vehicle control group Lp(a) concentration or self pre-dose Lp(a) concentration post-dose Lp(a) concentration)/vehicle control group Lp(a) concentration or self pre-dose Lp(a) concentration*100.

[2] = Pharmacokinetic test in C57BL/6J female mice; type: in vivo; settings: mouse, plasma; for bioavailability: gavage 10 mg/kg vs intravenous 2 mg/kg
Description: C57BL/6J female mice were used as test animals, and the drug concentration in plasma of C57BL/6J female mice at different time points after intravenous and gavage administration was determined to study the pharmacokinetic characteristics of the compound in C57BL/6J female mice.
Drug formulation: a certain amount of compound was weighed and normal saline was added to prepare clear, colorless solutions of 0.4 mg/mL (IV) and 1 mg/mL (PO).
Test procedure: C57BL/6J female mice were fasted overnight before gavage administration, followed by non-fasted intravenous administration. The intravenous dose was 2 mg/kg, and the gavage dose was 10 mg/kg. Approximately 0.03 mL of blood was collected from the orbital venous plexus at 0.083 (IV), 0.25, 0.5, 1, 2, 4, 8 and 24 h after administration, respectively, placed in a centrifuge tube containing EDTA-K2, centrifuged at 3000 rpm/min at 2-8° C. for 10 min to obtain plasma, and stored at −80° C.
Determination of the content of the compound to be tested in plasma of C57BL/6J female mice at different blood collection time points: 10 μL of plasma of C57BL/6J female mice collected at each time point after administration of LY3473329 and the compound of this application was added with 200 μL of 500 mM trichloroacetic acid aqueous solution to precipitate protein, which contained 100 ng/mL internal standard, vortexed for 1 min, centrifuged at 14000 rpm for 7 min for samples treated with test tubes, and centrifuged at 4000 rpm for 10 min for samples treated with 96-well plates, and 190 μL of the supernatant was transferred to a 96-well plate, and 8 μL of the supernatant was injected for LC-MS/MS analysis. WO2023078333A1 Example 6:12 μL of plasma of C57BL/6J female mice collected at each time point after administration was added with 240 μL of methanol to precipitate protein, which contained 10 ng/mL internal standard, vortexed for 1 min, centrifuged at 14000 rpm for 7 min for samples treated with test tubes, and centrifuged at 4000 rpm for 10 min for samples treated with 96-well plates. 220 μL of the supernatant was transferred to a 96-well plate, and 10 μL of the supernatant was taken for LC-MS/MS analysis.
After plasma concentrations were determined by LC/MS/MS analysis method, pharmacokinetic parameters (e.g. Cmax, AUC, T1/2, etc.) were calculated using WinNonlin software and noncompartmental analysis.

[3] = Safety assessment test in rats (14-day oral gavage); type: in vivo; settings: SD rats, 300 and 1000 mg/kg oral once daily for 14 days
Description: The safety of the compounds of the present invention was evaluated by oral gavage administration to SD rats as the test animals.
Test method: 50 SD rats (half males and half females) were randomly divided into vehicle control group and test article group according to their body weight. The vehicle saline or the compound of the present invention or LY3473329 (300 mg/kg, 1000 mg/kg) was administered orally once daily for 14 consecutive days.

[4] = 5 mg/kg oral once daily for 3 days
[5] = intravenous administration, 2 mg/kg
[6] = po, gavage administration, 10 mg/kg

Sequence of Lp(a) assembly in HepG2 cells overexpressing ApoA protein (P08519 20-2040): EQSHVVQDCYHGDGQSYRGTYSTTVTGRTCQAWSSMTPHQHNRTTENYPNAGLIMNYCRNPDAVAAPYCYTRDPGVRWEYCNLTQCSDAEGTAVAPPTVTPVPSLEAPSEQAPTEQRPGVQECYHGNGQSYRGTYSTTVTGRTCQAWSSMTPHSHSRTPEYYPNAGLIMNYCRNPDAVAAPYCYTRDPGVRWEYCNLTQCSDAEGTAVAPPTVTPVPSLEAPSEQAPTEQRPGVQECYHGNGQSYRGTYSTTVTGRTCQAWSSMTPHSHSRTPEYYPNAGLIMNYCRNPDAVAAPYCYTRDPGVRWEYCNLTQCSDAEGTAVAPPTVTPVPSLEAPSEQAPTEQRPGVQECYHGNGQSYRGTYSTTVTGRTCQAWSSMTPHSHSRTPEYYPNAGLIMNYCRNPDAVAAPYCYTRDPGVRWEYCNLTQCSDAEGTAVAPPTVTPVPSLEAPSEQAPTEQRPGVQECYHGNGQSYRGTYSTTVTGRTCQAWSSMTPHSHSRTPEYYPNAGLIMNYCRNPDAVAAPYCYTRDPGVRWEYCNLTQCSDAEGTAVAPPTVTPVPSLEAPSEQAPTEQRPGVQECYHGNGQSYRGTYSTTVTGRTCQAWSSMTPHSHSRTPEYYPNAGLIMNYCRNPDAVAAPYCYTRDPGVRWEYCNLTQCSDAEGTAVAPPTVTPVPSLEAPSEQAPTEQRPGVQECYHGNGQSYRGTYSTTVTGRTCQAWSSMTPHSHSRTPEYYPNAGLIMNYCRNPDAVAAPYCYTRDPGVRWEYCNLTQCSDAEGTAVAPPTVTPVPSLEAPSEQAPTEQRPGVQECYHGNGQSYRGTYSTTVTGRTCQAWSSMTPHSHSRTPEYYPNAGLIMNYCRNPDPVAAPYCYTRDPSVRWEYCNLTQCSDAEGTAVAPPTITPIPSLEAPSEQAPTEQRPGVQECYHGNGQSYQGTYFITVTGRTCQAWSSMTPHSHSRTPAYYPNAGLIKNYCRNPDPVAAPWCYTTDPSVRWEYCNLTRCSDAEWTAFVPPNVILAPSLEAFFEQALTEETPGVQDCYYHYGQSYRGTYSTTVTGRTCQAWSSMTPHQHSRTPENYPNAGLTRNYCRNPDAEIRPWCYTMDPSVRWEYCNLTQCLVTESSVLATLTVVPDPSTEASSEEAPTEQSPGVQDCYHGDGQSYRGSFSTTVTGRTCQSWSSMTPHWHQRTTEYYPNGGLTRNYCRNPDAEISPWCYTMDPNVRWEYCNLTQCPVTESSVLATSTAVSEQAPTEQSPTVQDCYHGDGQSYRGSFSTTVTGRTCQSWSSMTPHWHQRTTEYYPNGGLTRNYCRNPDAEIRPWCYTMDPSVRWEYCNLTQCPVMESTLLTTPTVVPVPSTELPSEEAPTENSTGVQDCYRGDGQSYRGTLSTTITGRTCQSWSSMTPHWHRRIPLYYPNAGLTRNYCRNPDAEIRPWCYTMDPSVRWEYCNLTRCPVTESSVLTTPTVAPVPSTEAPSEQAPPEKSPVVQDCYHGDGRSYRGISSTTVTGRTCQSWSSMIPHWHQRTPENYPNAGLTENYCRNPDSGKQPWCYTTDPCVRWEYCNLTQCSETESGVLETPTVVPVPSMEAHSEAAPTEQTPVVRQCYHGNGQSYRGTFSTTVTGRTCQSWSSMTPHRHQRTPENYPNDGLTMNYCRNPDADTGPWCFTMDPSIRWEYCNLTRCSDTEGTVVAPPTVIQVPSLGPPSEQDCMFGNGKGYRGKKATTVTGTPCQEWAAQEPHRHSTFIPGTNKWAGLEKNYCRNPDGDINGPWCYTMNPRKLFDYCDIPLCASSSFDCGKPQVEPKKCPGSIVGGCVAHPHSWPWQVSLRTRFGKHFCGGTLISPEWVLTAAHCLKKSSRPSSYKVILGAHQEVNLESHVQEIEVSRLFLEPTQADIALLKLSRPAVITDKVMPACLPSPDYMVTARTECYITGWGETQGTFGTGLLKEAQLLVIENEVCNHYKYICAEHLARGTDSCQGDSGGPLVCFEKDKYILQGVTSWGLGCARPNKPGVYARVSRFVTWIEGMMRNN

Compound | pIC50 [1] | AUC [2, 5] | half-life [2, 5] | bioavailability ([2]; po) | AUC [2, 6] | Cmax [2, 6] | half-life [2, 6] | Lp(a) Inhibition Rate (serum Lp(a); [4]) | Lp(a) Inhibition Rate (serum Lp(a); 30 mg/kg oral once daily for 3 days) | compound-related changes in clinical observation, body weight, food consumption, hematology, blood biochemistry, urine, organ weight, histopathology [3]
O=C(O)[C@@H](Cc1cccc(CC(=O)N(CCOc2cccc(C[C@H](C(=O)O)[C@H]3CCNC3)c2)Cc2cccc(C[C@H](C(=O)O)[C@H]3CCNC3)c2)c1)[C@H]1CCNC1 [Compound 96, (S)-3-(3-(2-((3-((S)-2-carboxy-2-((R)-pyrrolidin-3-yl)ethyl)benzyl)(2-(3-((S)-2-carboxy-2-((R)-pyrrolidin-3-yl)ethyl)phenoxy)ethyl)amino)-2-oxoethyl)phenyl)-2-((R)-pyrrolidin-3-yl)propanoic acid] | 9.24 | 22900 ng·h/mL | 23.3 h | 13.9% | 12400 ng·h/mL | 919 ng/mL | 11.4 h | 91% | 96% | –
O=C(O)[C@@H](Cc1cccc(CN(CCOc2cccc(C[C@H](C(=O)O)[C@H]3CCNC3)c2)C(=O)Nc2cccc(C[C@H](C(=O)O)[C@H]3CCNC3)c2)c1)[C@H]1CCNC1 [Compound 131, (S)-3-(3-(3-(3-((S)-2-carboxy-2-((R)-pyrrolidin-3-yl)ethyl)benzyl)-3-(2-(3-((S)-2-carboxy-2-((R)-pyrrolidin-3-yl)ethyl)phenoxy)ethyl)ureido)phenyl)-2-((R)-pyrrolidin-3-yl)propanoic acid] | 8.92 | 31300 ng·h/mL | 33.7 h | 13.2% | 14300 ng·h/mL | 893 ng/mL | 16 h | 81% | – | –
O=C(O)[C@@H](Cc1cccc(CC(=O)N(CCCOc2cccc(C[C@H](C(=O)O)[C@H]3CCNC3)c2)Cc2cccc(C[C@H](C(=O)O)[C@H]3CCNC3)c2)c1)[C@H]1CCNC1 [Compound 159, (S)-3-(3-(2-((3-((S)-2-carboxy-2-((R)-pyrrolidin-3-yl)ethyl)benzyl)(3-(3-((S)-2-carboxy-2-((R)-pyrrolidin-3-yl)ethyl)phenoxy)propyl)amino)-2-oxoethyl)phenyl)-2-((R)-pyrrolidin-3-yl)propanoic acid] | 8.77 | 33400 ng·h/mL | 35.5 h | 13.5% | 21000 ng·h/mL | 874 ng/mL | 28.9 h | 84% | – | –

Second part, led by results:

pIC50 [1] | AUC [2, 5] | half-life [2, 5] | bioavailability ([2]; po) | AUC [2, 6] | Cmax [2, 6] | half-life [2, 6] | Compound | Lp(a) Inhibition Rate (serum Lp(a); [4]) | Lp(a) Inhibition Rate (serum Lp(a); 30 mg/kg oral once daily for 3 days) | compound-related changes in clinical observation, body weight, food consumption, hematology, blood biochemistry, urine, organ weight, histopathology [3]
8.86 | 19200 ng·h/mL | 12.1 h | 15.9% | 23500 ng·h/mL | 816 ng/mL | 28.8 h | O=C(O)[C@@H](Cc1cccc(COCCN(Cc2cccc(C[C@H](C(=O)O)[C@H]3CCNC3)c2)C(=O)Cc2cccc(C[C@H](C(=O)O)[C@H]3CCNC3)c2)c1)[C@H]1CCNC1 [Compound 160, (S)-3-(3-(2-((3-((S)-2-carboxy-2-((R)-pyrrolidin-3-yl)ethyl)benzyl)(2-((3-((S)-2-carboxy-2-((R)-pyrrolidin-3-yl)ethyl)benzyl)oxy)ethyl)amino)-2-oxoethyl)phenyl)-2-((R)-pyrrolidin-3-yl)propanoic acid] | 83% | – | –
– | 8820 ng·h/mL | 9.8 h | 10.1% | 4460 ng·h/mL | 629 ng/mL | 7.4 h | O=C(O)[C@@H](Cc1cccc(CN(Cc2cccc(C[C@H](C(=O)O)[C@H]3CCNC3)c2)Cc2cccc(C[C@H](C(=O)O)[C@H]3CCNC3)c2)c1)[C@H]1CCNC1 [LY3473329, reference compound] | – | – | no changes
